# In patent US12655116B2, “Substituted isophthalic acid diamides” (Bayer Aktiengesellschaft, priority 2020, dated 2026):
# Legend:
# AMARE [1] = assay: Post-emergence herbicidal action against AMARE; assay type: in vivo, Amaranthus retroflexus; conditions: 20 g/ha, visual assessment about 3 weeks after treatment, 100% = plants have died, 0% = like control plants; for pest or weed control at 20 g/ha: Amaranthus retroflexus, 504 h
# How it was run: (§1)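 Sandy loam, greenhouse; treatment 2–3 weeks after sowing, one-leaf stage. Aqueous suspension or emulsion from WP/EC sprayed on foliage (600–800 l/ha, 0.2% wetting agent). Readout: visual % action, ~3 weeks.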
# VIOTR [2] = assay: Post-emergence herbicidal action against VIOTR; assay type: in vivo, Viola tricolor
# How it was run: as §1
# SETVI [3] = assay: Pre-emergence herbicidal action against SETVI; assay type: in vivo, Setaria viridis
# How it was run: (§2)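 Seeds sown in sandy loam, soil-covered; compound sprayed on soil surface pre-emergence. Application: WP/EC, 600–800 l/ha, 0.2% wetting agent. Readout: visual % damage at 3 weeks.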
# MATIN [4] = assay: Pre-emergence herbicidal action against MATIN; assay type: in vivo, Matricaria inodora; conditions: for pest or weed control at 20 g/ha / pest or weed control at 80 g/ha: Tripleurospermum inodorum, 504 h
# How it was run: as §2
# ABUTH [5] = assay: Post-emergence herbicidal action against ABUTH; assay type: in vivo, Abutilon theophrasti; conditions: visual assessment about 3 weeks after treatment vs untreated controls
# How it was run: as §1
# PHBPU [6] = assay: Pre-emergence herbicidal action against PHBPU; assay type: in vivo, Pharbitis purpurea; conditions: dosage 80 g/ha
# How it was run: as §2
# ABUTH [7] = assay: Pre-emergence herbicidal action against ABUTH; assay type: in vivo, Abutilon theophrasti; conditions: for pest or weed control at 80 g/ha / pest or weed control at 20 g/ha: Abutilon theophrasti, 504 h; for pest or weed control at 20 g/ha: read-out: Pre-emergence action against ABUTH (herbicidal activity in percent)
# How it was run: as §2
# DIGSA = assay: Pre-emergence herbicidal action against DIGSA; assay type: in vivo, Digitaria sanguinalis
# How it was run: as §2
# ECHCG [8] = assay: Post-emergence herbicidal action against ECHCG; assay type: in vivo, Echinochloa crus-galli
# How it was run: as §1
# POLCO = assay: Pre-emergence herbicidal action against POLCO; assay type: in vivo, Polygonum convolvulus; conditions: dosage 80 g/ha; for pest or weed control at 80 g/ha: Fallopia convolvulus, 504 h
# Description: Seeds of monocotyledonous and dicotyledonous weed plants and crop plants are laid out in sandy loam soil in wood-fiber pots and covered with soil. The compounds of the invention, formulated in the form of wettable powders (WP) or as emulsion concentrates (EC), are then applied to the surface of the covering soil in the form of an aqueous suspension or emulsion at a water application rate equivalent to 600 to 800 l/ha, with addition of 0.2% wetting agent. After the treatment, the pots are placed in a greenhouse and kept under good growth conditions for the trial plants. The damage to the test plants is scored visually after a test period of 3 weeks by comparison with untreated controls (herbicidal activity in percent (%): 100% activity=the plants have died, 0% activity=like control plants). […] The tables below illustrate, in an illustrative manner, the post-emergence herbicidal action of the compounds of the invention, the herbicidal activity being stated in percent.
# VIOTR [9] = assay: Pre-emergence herbicidal action against VIOTR; assay type: in vivo, Viola tricolor
# How it was run: as §2
# ECHCG [10] = assay: Pre-emergence herbicidal action against ECHCG; assay type: in vivo, Echinochloa crus-galli; conditions: 80 g/ha
# How it was run: as §2
# ALOMY [11] = assay: Pre-emergence herbicidal action against ALOMY; assay type: in vivo, Alopecurus myosuroides; conditions: 80 g/ha, pre-emergence, scored visually after 3 weeks vs untreated controls (100% = plants have died, 0% = like control plants)
# How it was run: as §2
# AMARE [12] = assay: Pre-emergence herbicidal action against AMARE; assay type: in vivo, Amaranthus retroflexus; conditions: for pest or weed control at 20 g/ha / pest or weed control at 80 g/ha: Amaranthus retroflexus, 504 h
# How it was run: as §2
# VERPE [13] = assay: Pre-emergence herbicidal action against VERPE; assay type: in vivo, Veronica persica; conditions: Veronica persica, 504 h; for pest or weed control at 80 g/ha: dosage 80 g/ha
# How it was run: as §2
# AVEFA = assay: Pre-emergence herbicidal action against AVEFA; assay type: in vivo, Avena fatua; conditions: Avena fatua, 504 h, pre-emergence
# How it was run: as §2
# ALOMY [14] = assay: Post-emergence herbicidal action against ALOMY; assay type: in vivo, Alopecurus myosuroides; conditions: Alopecurus myosuroides, 504 h, visual assessment about 3 weeks after treatment vs untreated controls
# How it was run: as §1
# PHBPU [15] = assay: Post-emergence herbicidal action against PHBPU; assay type: in vivo, Pharbitis purpurea; conditions: Ipomoea purpurea, 504 h
# How it was run: as §1
# VERPE [16] = assay: Post-emergence herbicidal action against VERPE; assay type: in vivo, Veronica persica; conditions: Veronica persica, 504 h
# How it was run: as §1
# MATIN [17] = assay: Post-emergence herbicidal action against MATIN; assay type: in vivo, Matricaria inodora; conditions: Tripleurospermum inodorum, 504 h
# How it was run: as §1
# SETVI [18] = assay: Post-emergence herbicidal action against SETVI; assay type: in vivo, Setaria viridis; conditions: Setaria viridis, 504 h
# How it was run: as §1
# [19] = 80 g/ha, scored visually after 3 weeks vs untreated controls (100% = plants have died, 0% = like control plants)
# [20] = dosage 20 g/ha, scored visually after 3 weeks vs untreated controls, 100% = plants have died, 0% = like control plants
# [21] = 20 g/ha, scored visually after 3 weeks vs untreated controls, 100% = plants have died, 0% = like control plants
# [22] = 80 g/ha, scored visually after 3 weeks vs untreated controls, 100% = plants have died, 0% = like control plants
structure (smiles),measurement,setting,value
Cn1nnnc1NC(=O)c1ccc(C(F)(F)F)c(C(=O)NC2CCC2)c1Cl [Example 1-146],Post-emergence action at 20 g/ha against AMARE in %,AMARE [1],100%
same,Post-emergence action against VIOTR in %,VIOTR [2]; 5 g/ha,80%
same,Post-emergence action against VIOTR in %,VIOTR [2]; 20 g/ha,100%
same,Pre-emergence action against SETVI in %,SETVI [3]; dosage 80 g/ha,80%
same,Pre-emergence action against MATIN in %,MATIN [4]; dosage 20 g/ha,100%
same,Pre-emergence action against MATIN in %,MATIN [4]; dosage 80 g/ha,100%
same,Post-emergence action against ABUTH in %,ABUTH [5]; dosage 20 g/ha,80%
same,Pre-emergence action against PHBPU in %,PHBPU [6],80%
same,Pre-emergence action against ABUTH (herbicidal activity),ABUTH [7]; [19],100%
same,Pre-emergence action against ABUTH (herbicidal activity in percent),ABUTH [7]; [20],100%
same,Pre-emergence action against DIGSA in %,DIGSA; dosage 20 g/ha,100%
same,Pre-emergence action against DIGSA in %,DIGSA; dosage 80 g/ha,100%
same,Post-emergence action against ECHCG in %,ECHCG [8]; dosage 20 g/ha,80%
same,Pre-emergence action against POLCO in %,POLCO,80%
same,Pre-emergence action against VIOTR in %,VIOTR [9]; dosage 80 g/ha,100%
same,Pre-emergence action against ECHCG in %,ECHCG [10],100%
same,Pre-emergence action against ALOMY (herbicidal activity),ALOMY [11],90%
same,Pre-emergence action against AMARE in %,AMARE [12]; [21],100%
same,Pre-emergence action against AMARE in %,AMARE [12]; [19],100%
Cn1nnnc1NC(=O)c1ccc(C(F)F)c(C(=O)Nc2ccccc2)c1Cl [Example 1-161],pest or weed control at 20 g/ha,AMARE [1],90%
same,pest or weed control at 20 g/ha,VERPE [13]; dosage 20 g/ha,80%
same,pest or weed control at 80 g/ha,VERPE [13],90%
same,pest or weed control at 20 g/ha,MATIN [4]; dosage 20 g/ha,90%
same,pest or weed control at 80 g/ha,MATIN [4]; dosage 80 g/ha,100%
same,pest or weed control at 80 g/ha,"PHBPU [6]; Ipomoea purpurea, 504 h",80%
same,pest or weed control at 80 g/ha,ABUTH [7]; [19],90%
same,pest or weed control at 20 g/ha,ABUTH [7]; [20],80%
same,pest or weed control at 80 g/ha,POLCO,80%
same,pest or weed control at 20 g/ha,AMARE [12]; [21],100%
same,pest or weed control at 80 g/ha,AMARE [12]; [22],100%
Cc1c(C(=O)Nc2nnnn2C)ccc(C(F)F)c1C(=O)NC(C)C [Example 1-346],pest or weed control at 80 g/ha,AVEFA; 80 g/ha,80%
same,pest or weed control at 20 g/ha,"AVEFA; 20 g/ha, scored visually after 3 weeks, 100% = plants have died, 0% = like control plants",80%
same,pest or weed control at 20 g/ha,AMARE [1],100%
same,pest or weed control at 5 g/ha,"VIOTR [2]; Viola tricolor, 504 h, 5 g/ha",90%
same,pest or weed control at 20 g/ha,"VIOTR [2]; Viola tricolor, 504 h, 20 g/ha",100%
same,pest or weed control at 80 g/ha,VERPE [13],80%
same,pest or weed control at 20 g/ha,"SETVI [3]; Setaria viridis, 504 h, dosage 20 g/ha",100%
same,pest or weed control at 80 g/ha,"SETVI [3]; Setaria viridis, 504 h, dosage 80 g/ha",100%
same,pest or weed control at 20 g/ha,MATIN [4]; dosage 20 g/ha,90%
same,pest or weed control at 80 g/ha,MATIN [4]; dosage 80 g/ha,100%
same,pest or weed control at 5 g/ha,ALOMY [14]; dosage 5 g/ha,80%
same,pest or weed control at 20 g/ha,ALOMY [14]; dosage 20 g/ha,90%
same,pest or weed control at 5 g/ha,"ABUTH [5]; Abutilon theophrasti, 504 h, dosage 5 g/ha",80%
same,pest or weed control at 20 g/ha,"ABUTH [5]; Abutilon theophrasti, 504 h, dosage 20 g/ha",100%
same,pest or weed control at 80 g/ha,ABUTH [7]; [19],100%
same,pest or weed control at 20 g/ha,ABUTH [7]; [20],90%
same,pest or weed control at 5 g/ha,"ECHCG [8]; Echinochloa crus-galli, 504 h, dosage 5 g/ha",80%
same,pest or weed control at 20 g/ha,"ECHCG [8]; Echinochloa crus-galli, 504 h, dosage 20 g/ha",90%
same,pest or weed control at 80 g/ha,POLCO,80%
same,pest or weed control at 20 g/ha,"VIOTR [9]; Viola tricolor, 504 h, dosage 20 g/ha",80%
same,pest or weed control at 80 g/ha,"VIOTR [9]; Viola tricolor, 504 h, dosage 80 g/ha",100%
same,pest or weed control at 5 g/ha,PHBPU [15]; dosage 5 g/ha,80%
same,pest or weed control at 20 g/ha,PHBPU [15]; dosage 20 g/ha,90%
same,pest or weed control at 80 g/ha,"ECHCG [10]; Echinochloa crus-galli, 504 h",90%
same,pest or weed control at 5 g/ha,VERPE [16]; 5 g/ha,80%
same,pest or weed control at 20 g/ha,VERPE [16]; 20 g/ha,80%
same,pest or weed control at 80 g/ha,"ALOMY [11]; Alopecurus myosuroides, 504 h",90%
same,pest or weed control at 5 g/ha,MATIN [17]; dosage 5 g/ha,80%
same,pest or weed control at 20 g/ha,MATIN [17]; dosage 20 g/ha,90%
same,pest or weed control at 20 g/ha,AMARE [12]; [21],100%
same,pest or weed control at 80 g/ha,AMARE [12]; [22],100%
same,pest or weed control at 5 g/ha,SETVI [18]; dosage 5 g/ha,100%
same,pest or weed control at 20 g/ha,SETVI [18]; dosage 20 g/ha,100%
